This is an account of results in ChEMBL document CHEMBL4422625, “Structure Elucidation, Conformation, and Configuration of Cytotoxic 6-Heptyl-5,6-dihydro-2 H-pyran-2-ones from Hyptis Species and Their Molecular Docking to α-Tubulin” (J Nat Prod, 2019).

Type in all cases: functional, cell-based
One experiment relates to MCF7. Description: Cytotoxicity against human MCF7 cells after 48 hrs by sulforhodamine B assay. Particulars: MCF7, 48 h. For orientation: Sulforhodamine B stains cellular protein and so reports cell mass.
A further experiment has as its system HeLa. Description: Cytotoxicity against human HeLa cells after 48 hrs by sulforhodamine B assay.
The next experiment has as its system HCT-15. Put plainly: Cytotoxicity against human HCT15 cells after 48 hrs by sulforhodamine B assay. Particulars: HCT-15, 48 h.

One may read the IC50 as the concentration that inhibits the measured activity by half.

SMILES strings stand for the structures.

As for `CCCC[C@@H](/C=C\[C@@H]1OC(=O)C=C[C@@H]1O)OC(C)=O` [PECTINOLIDE C], the results for the half-maximal inhibitory concentration (IC50) in the experiment on MCF7, with HeLa and in the experiment on HCT-15 were 1 µM, 0.3 µM and 2.3 µM, respectively.
On to `CCCC[C@H](O)/C=C\[C@@H]1OC(=O)C=C[C@@H]1OC(C)=O` [PECTINOLIDE B], for which the half-inhibitory concentration (IC50) amounted to 9.3 µM in the experiment on MCF7, 4.1 µM with HeLa and 5.2 µM in the experiment with HCT-15.
On the same counts, the results for `CCCC[C@H](OC(C)=O)[C@@H](O)[C@H](O)[C@@H]1OC(=O)C=C[C@@H]1OC(C)=O` are 9.8 µM, 6.9 µM and 9.9 µM.
Consider `CCCC[C@H](O)/C=C\[C@@H]1OC(=O)C[C@@H](OC)[C@@H]1O`, for which the concentration for half-maximal inhibition (IC50) in the experiment with MCF7, with HeLa and with HCT-15 was > 10 µM in each case.
`CCCC[C@H](/C=C\[C@@H]1OC(=O)C=C[C@@H]1OC(C)=O)OC(C)=O`: the half-maximal inhibitory concentration (IC50) was 0.5 µM in the experiment with MCF7, 0.7 µM in the experiment with HeLa and 0.8 µM with HCT-15.
On the same counts, the results for `CCCC[C@H](/C=C\[C@@H]1OC(=O)C=C[C@@H]1O)OC(C)=O` are 1.3 µM, 1.4 µM and 9.5 µM.
The like results for `C/C=C/C[C@H](C)[C@@H](OC)[C@@H](C)[C@H](O)C[C@H]1OC(=O)C=C[C@H]1CC` [PIRONETIN] were, in that order, 0.015 µM, 0.092 µM and < 0.015 µM.
Turning to `CCCC[C@@H](/C=C\[C@@H]1OC(=O)C=C[C@@H]1OC(C)=O)OC(C)=O` [PECTINOLIDE A], the IC50 amounted to 3.2 µM with MCF7, 3.2 µM with HeLa and 5.7 µM in the experiment on HCT-15.
Take `CCCC[C@H](OC(C)=O)[C@@H](OC(C)=O)[C@H](OC(C)=O)[C@@H]1OC(=O)C=C[C@@H]1OC(C)=O`: the IC50 was 7.7 µM in the experiment on MCF7, 2.7 µM in the experiment on HeLa and > 10 µM in the experiment on HCT-15.
The like results for `CC[C@]1(O)C[C@@H]2CN(CCc3c([nH]c4ccccc34)[C@@](C(=O)OC)(c3cc4c(cc3OC)N(C)[C@H]3[C@@](O)(C(=O)OC)[C@H](OC(C)=O)[C@]5(CC)C=CCN6CC[C@]43[C@@H]65)C2)C1` [VINBLASTINE] were, in that order, 0.012 µM, 0.011 µM and 0.011 µM.
The like results for `CCCC[C@@H](/C=C\[C@@H]1OC(=O)C[C@@H](OC)[C@@H]1OC(C)=O)OC(C)=O` were, in that order, > 10 µM, > 10 µM and > 10 µM.
The like results for `CCCC[C@H](O)/C=C\[C@@H]1OC(=O)C=C[C@@H]1O` were, in that order, 5.9 µM, 6.2 µM and 7.4 µM.
